Results reported in US20120165576A1, “USE OF ERYTHRITOL FOR THE PREVENTION OR TREATMENT OF HYPERTENSION” (priority 2009, published 2012).
Entries after “also recorded” stand apart in the source; their conditions may differ. Where two headings read alike, the source gives them in different places. Marks after values point to notes of the source that are not given here.

Key:
[1] = cited from earlier work
[2] = tested on: red blood cell suspension; assay: AAPH-induced hemolysis of a red blood cell suspension; format: cell-based; conditions: erythritol 0-50 mM, AAPH 50 mM, 37° C., FIG. 3
[3] = tested on: sections of thoracic aorta (aortic rings); assay: Aorta reactivity measurements: isolated aortic rings of rats after 21 days of erythritol in drinking water; format: in vivo, Wistar rats; conditions: for CAR: relaxation induced by 100 μM carbachol / PE: Contraction induced by 10 μM phenylephrine / SNP: Relaxation induced by 100 μM SNP after stable response to 100 μM carbachol / Tot. relax: Relaxation induced by 100 μM carbachol followed by 100 μM SNP / SNP fraction: Contribution of 100 μM SNP to the total relaxation: 1 g erythritol/kg/day in drinking water, 21 days, mean ± SEM
[4] = tested on: manganese superoxide dismutase (SOD2); assay: SOD2 expression in endothelial cells by qPCR; format: cell-based; conditions: human umbilical vein endothelial cells (CRL-1730), erythritol 5 mM, 24 hours
Experimental: The exposure of endothelial cells to erythritol results in a increase in manganese superoxide dismutase (SOD2) transcription (FIG. 4). Cultured human umbilical vein endothelial cells (CRL-1730, which are available from ATCC) were incubated under standard conditions with erythritol (5 mM, 24 hours). Exposure to erythritol induced or stimulated a 9.4 fold increase in the expression of SOD2 as determined by qPCR (FIG. 4).
After incubation, RNA was isolated from Qiazol suspended cells according to the manufacturer's protocol and quantified using a nanodrop. Reverse transcription reaction was performed using 500 ng of total RNA, which was reverse-transcribed into cDNA using iScript™ cDNA synthesis kit. Next, real time PCR was performed with a BioRad MyiQ iCycler Single Color RT-PCR detection system using Sensimix™ Plus SYBR and Fluorescein, 5 μl diluted (10×) cDNA, and 0.3 μM primers in a total volume of 25 μl. PCR was conducted as follows: denaturation at 95° C. for 3 minutes, followed by 40 cycles of 95° C. for 15 seconds and 60° C. for 45 seconds. After PCR a melt curve (60-95° C.) was produced for product identification and purity. β-actin was included as internal control. Data were analysed using the MyIQ software system (Biorad) and were expressed as relative gene expression (fold change) using the 2^ΔΔCt method.

[5] = cited from earlier work; remark: listed apart in the source
[6] = clinical testing, oral consumption
[7] = group DE: STZ diabetic rats, N = 4
[8] = group NE: normoglycemic rats, N = 5

## OCC(O)C(O)CO (stereo not shown) [erythritol, 1,2,3,4-butanetetrol]
[1]; [6]
  Well tolerated bolus (single) dose: up to 50 grams
  Well tolerated daily dose: up to 80 grams
[1]; clinical testing, oral consumption, listed as Erythritol
  Well tolerated bolus (single) dose: ≤ 50 grams
[1]; even after consumption of large quantities
  Digestive side-effects (in words): no digestive side-effects
[2]
  Inhibition of AAPH-induced hemolysis (in words): inhibited hemolysis in a concentration-dependent manner
  Lagtime (t50, time to reach 50% hemolysis) of AAPH-induced hemolysis (in words): concentration-dependently shifted the curve to the right; also recorded: concentration-dependent increase
[3]; diabetic rats consuming erythritol (DE), 1 g/kg/day, compared with normoglycemic rats
  Relaxation response of aortic rings to carbachol (in words): essentially the same as the relaxation response of normoglycemic rats; also recorded: identical to that observed in the normoglycemic rats; also recorded: higher and at the same level as found in the aortic rings of the rats of groups N and NE
[3]; [7]
  CAR: relaxation induced by 100 μM carbachol: 0.61 ± 0.07 g
  PE: Contraction induced by 10 μM phenylephrine: 0.60 ± 0.07 g
  SNP: Relaxation induced by 100 μM SNP after stable response to 100 μM carbachol: 0.14 ± 0.03 g
  Tot. relax: Relaxation induced by 100 μM carbachol followed by 100 μM SNP: 0.75 ± 0.09 g
[3]; group DE: STZ diabetic rats, N = 4, p < 0.05 compared to D
  SNP fraction: Contribution of 100 μM SNP to the total relaxation: 17.8 ± 3.1^b %
[3]; [8]
  CAR: relaxation induced by 100 μM carbachol: 0.60 ± 0.07 g
  PE: Contraction induced by 10 μM phenylephrine: 0.70 ± 0.06 g
  SNP fraction: Contribution of 100 μM SNP to the total relaxation: 24.7 ± 5.5^ %
  SNP: Relaxation induced by 100 μM SNP after stable response to 100 μM carbachol: 0.21 ± 0.06 g
  Tot. relax: Relaxation induced by 100 μM carbachol followed by 100 μM SNP: 0.81 ± 0.09 g
[3]; normoglycemic rats consuming erythritol (NE), 1 g/kg/day, FIG. 1
  Effect on carbachol concentration-response curve (in words): did not have a significant effect
[4]
  Increase in the expression of SOD2 as determined by qPCR: 9.4 fold
[5]; after administration
  Time until excretion with the urine is complete: about 3 days
[5]; in vivo
  Systemic metabolism (in words): not systemically metabolized
[5]; oral
  Absorption from the gut (in words): rapidly and virtually completely absorbed
